Assay results: patent EP0774116B1, “METHOD FOR SCREENING COMPOUND LIBRARIES” (ZENECA LIMITED, priority 1994, dated 1996)
pIC50: −log10 of the molar value.

Assays:
[1] = biological target: T1, endothelin converting enzyme (Bos taurus, UniProt P42891); assay: Zones of enzyme inhibition in Sephacryl gel with fluorogenic FRET substrate, fluorescence imaging; format: biochemical; details: beads impregnated with 10mM solution in DMSO; gel left at ambient temperature overnight; FRET substrate 4micromolar
T1 construct: Samples of endothelin converting enzyme (ECE) were obtained essentially according to the method of Okada et al; endogenous in cells; By own knowledge of Okada et al. 1990: membrane fraction of cultured bovine endothelial cells
T1 sequence (P42891 1-754): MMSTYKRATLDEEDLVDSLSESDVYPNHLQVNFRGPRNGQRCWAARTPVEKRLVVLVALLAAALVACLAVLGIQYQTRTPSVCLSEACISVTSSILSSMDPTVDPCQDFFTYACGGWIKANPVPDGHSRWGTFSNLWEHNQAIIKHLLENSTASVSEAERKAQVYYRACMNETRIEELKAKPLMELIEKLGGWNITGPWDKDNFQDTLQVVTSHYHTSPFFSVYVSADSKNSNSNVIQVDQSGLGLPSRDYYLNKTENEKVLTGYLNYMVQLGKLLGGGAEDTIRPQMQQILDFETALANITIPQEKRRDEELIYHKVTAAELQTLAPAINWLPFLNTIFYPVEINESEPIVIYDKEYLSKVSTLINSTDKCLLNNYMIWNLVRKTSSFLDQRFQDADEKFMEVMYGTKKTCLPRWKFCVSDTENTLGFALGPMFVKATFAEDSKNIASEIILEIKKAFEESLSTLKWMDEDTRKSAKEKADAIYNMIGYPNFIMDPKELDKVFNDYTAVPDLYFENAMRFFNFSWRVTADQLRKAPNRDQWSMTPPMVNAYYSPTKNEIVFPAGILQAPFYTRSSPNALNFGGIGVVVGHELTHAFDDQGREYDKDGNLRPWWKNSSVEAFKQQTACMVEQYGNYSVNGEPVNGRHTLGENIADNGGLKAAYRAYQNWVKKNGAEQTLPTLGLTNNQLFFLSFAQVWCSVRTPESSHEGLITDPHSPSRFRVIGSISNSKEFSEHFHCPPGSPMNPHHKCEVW
Method: In this example, polystyrene beads are impregnated with a compound (phosphoramidon) to simulate the situation that would arise when a compound is made on a bead and then released prior to contacting the assay medium. The assay medium comprises a Sephacryl™ gel containing an enzyme, endothelin converting enzyme, and a fluorogenic FRET substrate, following by fluorescence imaging of the gel.
Ca 300 beads as used in Example 1 were suspended in a solution of phosphoramidon (10mM) in DMSO, allowed to swell and washed briefly in DMSO.
The FRET substrate, was derived from that of human big endothelin-1, 16-37, with Glu-26 changed to Cys: [formula] Fluorescein had been attached to Cys-26 and tetramethylrhodamine attached to the N-terminus, such that cleavage of the substrate removes the quenching effect of the tetramethylrhodamine resulting in an increase of fluorescein fluorescence.
The assay phase was assembled as follows. Sephacryl™ S-500 gel was suspended in 0.2M Tris/HCl pH 7.2 containing 0.5% BSA and then washed with buffer alone. To this gel suspension (24.5ml) was added the FRET substrate (3ml, 4micromolar final) and ECE (2.6 microlitres). After gentle mixing, the gel was poured into the polystyrene lid of a microtitre plate, allowed to settle and excess liquid gently removed with a tissue. […] The gel was then imaged on a fluorescence imager (FluorImager, Molecular Dynamics).

[2] = test system: porcine endothelin receptor; assay: Zone screening scintillation proximity assay in agarose gel, [125-I]Endothelin binding to receptor-coated SPA microspheres; details: one bead per well
Method: Agarose (Sigma) was suspended in distilled water and heated to boiling point in a microwave to melt, then cooled to 50 deg. C. Microspheres coated with the porcine endothelin receptor (1 vial, SPA, Amersham) were re-constituted in assay buffer (50 mM Tris.HCl, 1 mM EDTA, 0.1% BSA, 10 mM MgC12, pH 6.4 (25 ml). This suspension (10 ml) was then added to the cooled (50 deg. C) agarose (10 ml), vortexed mixed and 0.1 ml portions immediately added to wells of a white microtitre plate (Picoplate-96, Packard).
Test compounds were prepared as follows. Polystyrene beads (as used in example 1) were suspended in DMSO solutions of endothelin-1 (Cambridge Research Biochemicals) or various test compounds (T1 - T4) at various concentrations (see Table 1) for about 2 hours. After a spin (1 min.) on a micro-fuge, the beads were washed briefly in ethanol. Single beads were then transfered with forceps into the centre of the wells containing the SPA/agarose mix, one bead per well.
[125-I]Endothelin (Amersham) was diluted into the assay buffer to give a 180 pM solution. 6 ml of this was added to 6 ml of 1% agarose (at 50 deg. C) and vortexed mixed. 0.05 ml aliquots were then immediately added to each well. The plate was then sealed (Topseal-S, Packard) and counted at intervals (Top Count, Packard) for 2 minutes per well. By reference to a total control (no compound present) and non-specific binding control (40 micromolar endothelin-1, measured after 8 hours incubation), the per cent inhibition caused by each compound as it diffused away from the bead was calculated.
This inhibition is related to the potency of the compound. […]

[3] = biological target: endothelin receptor; assay: IC-50 determination by conventional filtration techniques (Holland et al.); format: binding

| zones of enzyme inhibition in gel (fluorescence image) [1] | inhibition (%) ([2]; readings at 2 hours, bead soaked in 1.25 micromolar DMSO solution) | inhibition (%) ([2]; readings at 2 hours, bead soaked in 2.5 micromolar DMSO solution) | inhibition (%) ([2]; readings at 2 hours, bead soaked in 5 micromolar DMSO solution) | inhibition (%) ([2]; readings at 2 hours, bead soaked in 10 micromolar DMSO solution) | inhibition (%) ([2]; readings at 2 hours, bead soaked in 20 micromolar DMSO solution) | inhibition (%) ([2]; readings at 2 hours, bead soaked in 40 micromolar DMSO solution) | inhibition (%) ([2]; readings at 8 hours, bead soaked in 1.25 micromolar DMSO solution) | inhibition (%) ([2]; readings at 8 hours, bead soaked in 2.5 micromolar DMSO solution) | inhibition (%) ([2]; readings at 8 hours, bead soaked in 5 micromolar DMSO solution) | inhibition (%) ([2]; readings at 8 hours, bead soaked in 10 micromolar DMSO solution) | inhibition (%) ([2]; readings at 8 hours, bead soaked in 20 micromolar DMSO solution) | inhibition (%) ([2]; readings at 8 hours, bead soaked in 40 micromolar DMSO solution) | pIC50 [3] | Compound |
| --- | --- | --- | --- | --- | --- | --- | --- | --- | --- | --- | --- | --- | --- | --- |
| zones of reduced fluorescence | – | – | – | – | – | – | – | – | – | – | – | – | – | CC(C)C[C@H](NP(=O)(O)O[C@@H]1O[C@@H](C)[C@H](O)[C@@H](O)[C@H]1O)C(=O)N[C@@H](Cc1c[nH]c2ccccc12)C(=O)O [phosphoramidon] |
| – | -0.6 | 12.3 | 19.5 | 36.3 | 85.2 | (100) % | 6.5 | 14.0 | 18.2 | 40.0 | 47.5 | (100) % | 9.74 | endothelin-1 |
